Consider 15 molecules from patent publication US9376429B2, “Sodium channel blockers, preparation method thereof and use thereof” (Daewoong Pharmaceutical Co., Ltd., priority 2012, dated 2016).

The target of assay [1] is T1, sodium ion channel (Nav1.7) (Homo sapiens, UniProt Q15858).
T1 construct: host or cells: HEK293
Put plainly: Blocking effect against sodium ion channel (Nav1.7), IonFlux16 auto patch clamp, hNav1.7 HEK293 cells. The assay is classed as cell-based. The note with it: peak current after 50 seconds treatment, eight concentrations. The procedure, abridged:
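HEK293 cells stably expressing human Nav1.7 were recorded by IonFlux16 automated patch clamp in extracellular solution (pH 7.45, final DMSO ≤0.3%). Peak current was measured after 50 s exposure to each of eight compound concentrations and expressed as percent inhibition relative to pre-compound current.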
On the technique in general: The patch-clamp technique gives a direct electrical read-out from membranes.

The conditions of assay [2]: neuropathic pain patients; cited from earlier work.

Where only a bound is given, the exact number is not on record here.

T1 sequence (Q15858 whole entry): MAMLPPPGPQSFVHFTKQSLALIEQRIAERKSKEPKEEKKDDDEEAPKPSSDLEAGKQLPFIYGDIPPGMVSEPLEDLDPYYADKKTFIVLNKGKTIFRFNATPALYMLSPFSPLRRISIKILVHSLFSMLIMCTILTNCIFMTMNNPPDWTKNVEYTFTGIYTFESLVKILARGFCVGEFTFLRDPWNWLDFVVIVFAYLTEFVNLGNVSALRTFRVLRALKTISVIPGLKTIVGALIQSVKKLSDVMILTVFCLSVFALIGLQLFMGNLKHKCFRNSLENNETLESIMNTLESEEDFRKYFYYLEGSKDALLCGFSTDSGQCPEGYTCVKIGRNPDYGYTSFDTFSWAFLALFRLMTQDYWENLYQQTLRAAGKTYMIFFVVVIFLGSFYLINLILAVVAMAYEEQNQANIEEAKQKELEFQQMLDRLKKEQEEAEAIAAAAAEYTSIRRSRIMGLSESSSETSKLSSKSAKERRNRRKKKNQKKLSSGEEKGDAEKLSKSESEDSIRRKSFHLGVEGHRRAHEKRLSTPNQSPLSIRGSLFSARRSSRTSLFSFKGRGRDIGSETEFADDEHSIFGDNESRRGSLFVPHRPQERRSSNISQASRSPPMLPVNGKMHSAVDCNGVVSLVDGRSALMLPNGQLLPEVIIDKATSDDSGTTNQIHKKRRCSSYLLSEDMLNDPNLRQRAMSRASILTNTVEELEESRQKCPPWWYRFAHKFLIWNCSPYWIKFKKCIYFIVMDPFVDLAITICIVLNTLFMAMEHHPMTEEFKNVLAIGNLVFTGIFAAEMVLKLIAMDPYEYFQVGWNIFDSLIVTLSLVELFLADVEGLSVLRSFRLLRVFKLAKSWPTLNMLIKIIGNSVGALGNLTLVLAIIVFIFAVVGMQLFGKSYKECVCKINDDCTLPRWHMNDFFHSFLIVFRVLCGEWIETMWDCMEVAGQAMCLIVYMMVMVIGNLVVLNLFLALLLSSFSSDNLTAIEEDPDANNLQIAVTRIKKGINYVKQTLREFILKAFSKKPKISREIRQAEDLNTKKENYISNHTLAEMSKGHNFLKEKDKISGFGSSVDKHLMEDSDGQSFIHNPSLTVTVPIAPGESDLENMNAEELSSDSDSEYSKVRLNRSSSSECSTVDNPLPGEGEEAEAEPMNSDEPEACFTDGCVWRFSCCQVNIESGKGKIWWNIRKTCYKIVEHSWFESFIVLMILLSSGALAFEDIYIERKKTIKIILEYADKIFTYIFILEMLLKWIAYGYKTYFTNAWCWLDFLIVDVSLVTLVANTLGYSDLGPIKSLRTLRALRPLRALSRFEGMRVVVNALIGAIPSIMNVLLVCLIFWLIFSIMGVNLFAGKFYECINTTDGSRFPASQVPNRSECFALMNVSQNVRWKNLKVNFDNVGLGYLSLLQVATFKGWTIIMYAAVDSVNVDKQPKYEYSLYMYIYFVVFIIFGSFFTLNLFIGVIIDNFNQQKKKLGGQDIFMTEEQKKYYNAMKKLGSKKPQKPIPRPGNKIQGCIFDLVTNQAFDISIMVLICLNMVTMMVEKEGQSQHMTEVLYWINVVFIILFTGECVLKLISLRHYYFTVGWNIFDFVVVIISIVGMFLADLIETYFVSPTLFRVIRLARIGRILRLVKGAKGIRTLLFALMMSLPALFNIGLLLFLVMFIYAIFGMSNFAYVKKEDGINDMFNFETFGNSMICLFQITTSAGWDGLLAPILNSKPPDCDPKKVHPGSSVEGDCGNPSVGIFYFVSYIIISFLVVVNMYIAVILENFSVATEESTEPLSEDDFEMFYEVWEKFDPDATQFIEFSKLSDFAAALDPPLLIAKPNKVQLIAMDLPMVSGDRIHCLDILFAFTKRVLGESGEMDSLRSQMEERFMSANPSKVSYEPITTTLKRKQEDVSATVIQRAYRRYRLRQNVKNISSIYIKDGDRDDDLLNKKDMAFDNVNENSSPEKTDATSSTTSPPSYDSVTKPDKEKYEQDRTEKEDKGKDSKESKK

As to `Cn1nccc1-c1cc(Cl)ccc1C(O)c1ccc(S(=O)(=O)Nc2nccs2)cc1F` (stereo not drawn) [Example 144, 4-((4-chloro-2-(1-methyl-1H-pyrazol-5-yl)phenyl)(hydroxy)methyl)-3-fluoro-N-(thiazol-2-yl)benzenesulfonamide], the IC50 in assay [1] was more than 100 nM. Turning to `O=S(=O)(Nc1nccs1)c1ccc(C(O)c2ccc(Cl)cc2-c2cccnc2)c(F)c1` (stereo not drawn) [Example 145, 4-((4-chloro-2-(pyridin-3-yl)phenyl)(hydroxy)methyl)-3-fluoro-N-(thiazol-2-yl)benzenesulfonamide], the half-maximal inhibitory concentration (IC50) in assay [1] is more than 100 nM. Consider `O=S(=O)(Nc1nccs1)c1ccc(C(O)c2ccc(Cl)cc2-c2ccncc2)c(F)c1` (stereo not drawn) [Example 146, 4-((4-chloro-2-(pyridin-4-yl)phenyl)(hydroxy)methyl)-3-fluoro-N-(thiazol-2-yl)benzenesulfonamide], for which the IC50 in assay [1] was more than 100 nM. With `O=S(=O)(Nc1nccs1)c1ccc(C(O)c2ccc(Cl)cc2-c2ccncc2)cc1` (stereo not drawn) [Example 147, 4-((4-chloro-2-(pyridin-4-yl)phenyl)(hydroxy)methyl)-N-(thiazol-2-yl)benzenesulfonamide], the IC50 in assay [1] is more than 100 nM. In turn, `O=S(=O)(Nc1nccs1)c1ccc(C(O)c2ccc(Cl)cc2-c2cccnc2)cc1` (stereo not drawn) [Example 148, 4-((4-chloro-2-(pyridin-3-yl)phenyl)(hydroxy)methyl)-N-(thiazol-2-yl)benzenesulfonamide] gave a 50% inhibitory concentration (IC50) in assay [1] of more than 100 nM. Still for that read-out and setting: then `O=S(=O)(Nc1nccs1)c1ccc(C(O)c2ccc(-c3ccoc3)cc2-c2ccoc2)cc1` (stereo not drawn) [Example 149, 4-((2,4-di(furan-3-yl)phenyl)(hydroxy)methyl)-N-(thiazol-2-yl)benzenesulfonamide], with more than 100 nM; and `O=S(=O)(Nc1nccs1)c1ccc(C(O)c2ccc(-c3cccnc3F)cc2-c2ccoc2)cc1` (stereo not drawn) [Example 150, 4-((4-(2-fluoropyridin-3-yl)-2-(furan-3-yl)phenyl)(hydroxy)methyl)-N-(thiazol-2-yl)benzenesulfonamide], with more than 100 nM; and `O=S(=O)(Nc1nccs1)c1ccc(C(O)c2ccc(-c3ccc(F)nc3)cc2-c2ccoc2)cc1` (stereo not drawn) [Example 151, 4-((4-(6-fluoropyridin-3-yl)-2-(furan-3-yl)phenyl)(hydroxy)methyl)-N-(thiazol-2-yl)benzenesulfonamide], with more than 100 nM. Same read-out and setting: then `O=S(=O)(Nc1nccs1)c1ccc(C(O)c2ccc(-c3ccccc3F)cc2-c2ccoc2)cc1` (stereo not drawn) [Example 152, 4-((2′-fluoro-3-(furan-3-yl)-[1,1′-biphenyl]-4-yl)(hydroxy)methyl)-N-(thiazol-2-yl)benzenesulfonamide], with more than 100 nM; and `O=S(=O)(Nc1nccs1)c1ccc(C(O)c2ccc(-c3cccc(F)c3)cc2-c2ccoc2)cc1` (stereo not drawn) [Example 153, 4-((3′-fluoro-3-(furan-3-yl)-[1,1′-biphenyl]-4-yl)(hydroxy)methyl)-N-(thiazol-2-yl)benzenesulfonamide], with 51 to 100 nM; and `O=S(=O)(Nc1nccs1)c1ccc(C(O)c2ccc(-c3ccc(F)cc3)cc2-c2ccoc2)cc1` (stereo not drawn) [Example 154, 4-((4′-fluoro-3-(furan-3-yl)-[1,1′-biphenyl]-4-yl)(hydroxy)methyl)-N-(thiazol-2-yl)benzenesulfonamide], with more than 100 nM.

`O=S(=O)(Nc1nccs1)c1ccc(C(O)c2cccnc2-c2ccoc2)c(F)c1` (stereo not drawn) [Example 155, 3-fluoro-4-((2-(furan-3-yl)pyridin-3-yl)(hydroxy)methyl)-N-(thiazol-2-yl)benzenesulfonamide] had a half-inhibitory concentration (IC50) in assay [1] of more than 100 nM. As to `O=S(=O)(Nc1nccs1)c1ccc(C(O)c2cccnc2-c2ccoc2)cc1` (stereo not drawn) [Example 156, 4-((2-(furan-3-yl)pyridin-3-yl)(hydroxy)methyl)-N-(thiazol-2-yl)benzenesulfonamide], the IC50 in assay [1] was more than 100 nM. Same read-out and setting: the value for `O=S(=O)(Nc1nccs1)c1ccc(C(O)c2cccnc2-c2ccccc2)c(F)c1` (stereo not drawn) [Example 157, 3-fluoro-4-(hydroxy(2-phenylpyridin-3-yl)methyl)-N-(thiazol-2-yl)benzenesulfonamide] was more than 100 nM. Consider `NCC1(CC(=O)O)CCCCC1` [gabapentin], for which the “effective for share of the patients” value in assay [2] was 60%.

What is called IC50 is the concentration that inhibits the measured activity by half. A higher IC50 goes with a need for much substance.
